# Experimental data: patent US10570140B2, “Selective inhibitors of protein arginine methyltransferase 5 (PRMT5)” (Prelude Therapeutics, Incorporated, priority 2017, dated 2020)
# pIC50: −log10 of the molar value.
# Tests used:
# [1] = system: Granta-519 cells; assay: Cell proliferation assay on Granta-519 cells (CCK-8, day 10); format: cell-based; conditions: Homo sapiens, 240 h, Granta-519 cell line, read-out: Prolif. IC50
# Procedure: Cell Proliferation Assay to Determine IC50 on Granta-519 Cells
# Granta-519 cells were maintained in PRMI 1640 (Corning Cellgro, Catalog #: 10-040-CV) medium supplemented with 10% v/v FBS (GE Healthcare, Catalog #: SH30910.03). Compounds were dissolved in DMSO to make 10 mM stocks and stored at −20° C. Nine-point, 3-fold serial dilutions were made with DMSO with top concentration at 1 mM (working stocks).
# On day of experiment, compound working stocks were further diluted at 1:50 with fresh medium in 96 well plate, and 10 μL of diluted drugs were added to a new 96 well plate for proliferation assay. Cells growing at exponential phase were spun down at 1500 rpm for 4 min and resuspend in fresh medium to reach a density of 0.5×10^6 cells/ml. 200 ul of cells were added to 96 well plate containing diluted drugs and incubated for 3 days. DMSO was used a vehicle control.
# One day 3, 10 μL of Cell Counting Kit-8 (CCK-8, Jojindo, CK04-13) solution was added to a new 96 well plate. Cells incubated with drugs for 3 days were resuspended by pipetting up and down, and 100 μL of cells were transferred to 96 well plate containing CCK-8 reagent to measure viable cells. Plates were incubated in CO2 incubator for 2 hours and OD450 values were measured with a microplate reader (iMark microplate reader, Bio-Rad).
# For re-plating, compound working stocks were diluted at 1:50 with fresh medium and 10 μL of diluted drugs were added to a new 96 well plate. Cells from Day 3 plate (50 ul) were added to 96 well plate containing fresh drug and additional 150 μL of fresh medium was added to reach 200 μL volume. Plate was returned to CO2 incubator and incubated for 3 more days. Viable cells measurement and re-plating were repeated on day 6, and the final viable cells measurement was taken on day 10.
# Percentage of viable cells, relative to DMSO vehicle control, were calculated and plotted in Graphpad Prism ([Inhibitor] vs. normalized response−Variable slope) to determine proliferation IC50 values on day 10.
# [2] = molecular target: PRMT5/MEP50 complex (Homo sapiens (Human), UniProt O14744); assay: PRMT5 biochemical assay (3H-SAM filter plate, histone H2A substrate); conditions: PRMT5/MEP50 5 nM, histone H2A 5 μM, SAM 1 μM; read-out: PRMT5 IC50
# PRMT5/MEP50 complex, sequence (O14744 whole entry): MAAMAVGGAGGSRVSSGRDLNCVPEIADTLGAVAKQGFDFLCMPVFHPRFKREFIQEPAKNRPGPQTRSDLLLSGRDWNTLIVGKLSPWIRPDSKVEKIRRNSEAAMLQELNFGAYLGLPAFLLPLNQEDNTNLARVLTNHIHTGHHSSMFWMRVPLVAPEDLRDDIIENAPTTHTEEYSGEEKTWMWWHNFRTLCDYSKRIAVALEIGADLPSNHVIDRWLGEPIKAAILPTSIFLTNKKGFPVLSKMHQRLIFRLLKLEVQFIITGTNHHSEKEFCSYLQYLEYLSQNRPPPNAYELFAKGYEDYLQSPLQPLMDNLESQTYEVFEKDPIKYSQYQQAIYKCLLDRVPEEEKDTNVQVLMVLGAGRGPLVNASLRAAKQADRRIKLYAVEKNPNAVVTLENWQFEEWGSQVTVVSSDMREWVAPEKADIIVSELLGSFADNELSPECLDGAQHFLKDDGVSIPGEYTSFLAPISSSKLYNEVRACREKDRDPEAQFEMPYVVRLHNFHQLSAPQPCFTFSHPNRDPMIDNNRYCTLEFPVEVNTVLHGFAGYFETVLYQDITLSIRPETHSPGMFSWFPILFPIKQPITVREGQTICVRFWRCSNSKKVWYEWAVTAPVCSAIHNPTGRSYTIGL
# PRMT5/MEP50 complex, sequence (Q9BQA1 whole entry partner): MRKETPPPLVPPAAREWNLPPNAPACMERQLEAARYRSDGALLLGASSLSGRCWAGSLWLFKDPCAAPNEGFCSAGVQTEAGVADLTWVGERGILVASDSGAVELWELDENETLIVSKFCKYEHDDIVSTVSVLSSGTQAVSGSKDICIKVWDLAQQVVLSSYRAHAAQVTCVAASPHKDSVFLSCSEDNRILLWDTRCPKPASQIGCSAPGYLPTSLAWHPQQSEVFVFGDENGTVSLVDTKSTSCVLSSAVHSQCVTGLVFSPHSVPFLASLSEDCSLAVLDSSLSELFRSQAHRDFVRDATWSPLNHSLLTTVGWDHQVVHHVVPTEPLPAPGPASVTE
# Procedure: Biochemical Assay Protocol
# Compounds were solubilized and 3-fold diluted in 100% DMSO. […] Standard reactions were performed in a total volume of 50 μl in assay buffer, with histone H2A (5 μM final) as substrate. To this was added the PRMT5/MEP50 complex diluted to provide a final assay concentration of 5 nM and the compounds were allowed to preincubate for 15 to 20 minutes at room temperature. The reaction was initiated by adding S-[3H-methyl]-adenosyl-L-methionine (PerkinElmer) to final concentration of 1 μM. Following a 60 minutes incubation at 30° C., the reaction was stopped by adding 100 μL of 20% TCA. Each reaction was spotted onto filter plate (MultiScreen FB Filter Plate, Millipore), and washed 5 times with PBS buffer, Scintillation fluid was added to the filter plate and read in a scintillation counter. IC50 values were determined by fitting the data to the standard 4 parameters with Hill Slope using GraphPad Prism software.
# [3] = system: sDMA; assay: Western blot for symmetric di-methyl arginine (sDMA) IC50 in Granta cells; format: cell-based; conditions: Homo sapiens, 72 h; Granta-519 cell line, 3 days
pIC50 [2],pIC50 [3],SMILES,pIC50 [1]
7.96,,"Cc1cc([C@@H](O)[C@H]2O[C@@H](n3ccc4c(C)ncnc43)[C@H](O)[C@]2(C)O)ccc1Cl [Example 57, (2R,3S,4R,5R)-2-((R)-(4-chloro-3-methylphenyl)(hydroxy)methyl)-3-methyl-5-(4-methyl-7H-pyrrolo[2,3-d]pyrimidin-7-yl)tetrahydrofuran-3,4-diol]",6.04
9.30,9.00,"C[C@@]1(O)[C@@H](COc2ccc3cc(Br)c(N)nc3c2)O[C@@H](n2ccc3c(N)ncnc32)[C@@H]1O [Example 12, (2R,3S,4R,5R)-2-(((2-amino-3-bromoquinolin-7-yl)oxy)methyl)-5-(4-amino-7H-pyrrolo[2,3-d]pyrimidin-7-yl)-3-methyltetrahydrofuran-3,4-diol]",
7.96,5.50,"Cc1ncnc2c1ccn2[C@@H]1O[C@H]([C@H](O)c2ccc(Cl)c(Cl)c2)[C@@](C)(O)[C@H]1O [Example 58, (2R,3S,4R,5R)-2-((R)-(3,4-dichlorophenyl)(hydroxy)methyl)-3-methyl-5-(4-methyl-7H-pyrrolo[2,3-d]pyrimidin-7-yl)tetrahydrofuran-3,4-diol]",5.00
9.10,8.29,"Cc1ncnc2c1ccn2[C@@H]1O[C@H](COc2ccc3cc(Br)c(N)nc3c2)[C@@](C)(O)[C@H]1O [Example 55, (2R,3S,4R,5R)-2-(((2-amino-3-bromoquinolin-7-yl)oxy)methyl)-3-methyl-5-(4-methyl-7H-pyrrolo[2,3-d]pyrimidin-7-yl)tetrahydrofuran-3,4-diol]",
9.07,9.00,"C[C@@]1(O)[C@@H](COc2ccc3ccc(N)nc3c2)O[C@@H](n2cc(F)c3c(N)ncnc32)[C@@H]1O [Example 6, (2R,3S,4R,5R)-5-(4-amino-5-fluoro-7H-pyrrolo[2,3-d]pyrimidin-7-yl)-2-(((2-aminoquinolin-7-yl)oxy)methyl)-3-methyltetrahydrofuran-3,4-diol]",7.52
7.17,,"Cc1cc([C@@H](O)[C@H]2O[C@@H](n3ccc4c(N)ncnc43)[C@H](O)[C@]2(C)O)ccc1Cl [Example 56, (2R,3S,4R,5R)-5-(4-amino-7H-pyrrolo[2,3-d]pyrimidin-7-yl)-2-((R)-(4-chloro-3-methylphenyl)(hydroxy)methyl)-3-methyltetrahydrofuran-3,4-diol]",6.69
9.00,7.34,"Cc1ncnc2c1ccn2[C@@H]1O[C@H](COc2ccn3c(C)cnc3c2)[C@@](C)(O)[C@H]1O [Example 67, (2R,3S,4R,5R)-3-methyl-5-(4-methyl-7H-pyrrolo[2,3-d]pyrimidin-7-yl)-2-(((3-methylimidazo[1,2-a]pyridin-7-yl)oxy)methyl)tetrahydrofuran-3,4-diol]",
8.52,7.15,"C[C@@]1(O)[C@@H]([C@H](O)c2ccc(F)c(C(F)(F)F)c2)O[C@@H](n2ccc3c(N)ncnc32)[C@@H]1O [Example 63, (2R,3S,4R,5R)-5-(4-amino-7H-pyrrolo[2,3-d]pyrimidin-7-yl)-2-((R)-(4-fluoro-3-(trifluoro-methyl)phenyl)(hydroxy)methyl)-3-methyltetrahydrofuran-3,4-diol]",6.64
7.77,5.05,"C[C@@]1(O)[C@@H](Cc2ccc(Cl)c(Cl)c2)O[C@@H](n2ccc3c(N)ncnc32)[C@@H]1O [Example 50, (2R,3S,4R,5R)-5-(4-amino-7H-pyrrolo[2,3-d]pyrimidin-7-yl)-2-(3,4-dichlorobenzyl)-3-methyltetrahydrofuran-3,4-diol]",
6.05,6.00,"CSC[C@H]1O[C@@H](n2ccc3c(N)ncnc32)[C@H](O)[C@]1(C)O [Example 17, (2S,3S,4R,5R)-5-(4-amino-7H-pyrrolo[2,3-d]pyrimidin-7-yl)-3-methyl-2-((methylthio)methyl)tetrahydrofuran-3,4-diol]",3.70
8.72,7.68,"Nc1ccc2ccc(OC[C@H]3O[C@@H](n4ccc5c(N)ncnc54)[C@H](O)[C@@]3(O)C(F)(F)F)cc2n1 [Example 2, (2R,3S,4R,5R)-5-(4-amino-7H-pyrrolo[2,3-d]pyrimidin-7-yl)-2-(((2-aminoquinolin-7-yl)oxy)methyl)-3-(trifluoromethyl)tetrahydrofuran-3,4-diol]",
9.12,7.82,"C[C@@]1(O)[C@@H](COc2ccc3ccc(N)nc3c2)O[C@@H](n2ccc3c(N)ncnc32)[C@@H]1O [Example 1, (2R,3S,4R,5R)-5-(4-amino-7H-pyrrolo[2,3-d]pyrimidin-7-yl)-2-(((2-aminoquinolin-7-yl)oxy)methyl)-3-methyltetrahydrofuran-3,4-diol]",7.40
8.15,6.38,"Cc1ncnc2c1ccn2[C@@H]1O[C@H]([C@H](O)c2ccc(C(F)(F)F)cc2)[C@@](C)(O)[C@H]1O [Example 62, (2R,3S,4R,5R)-2-((R)-hydroxy(4-(trifluoromethyl)phenyl)methyl)-3-methyl-5-(4-methyl-7H-pyrrolo[2,3-d]pyrimidin-7-yl)tetrahydrofuran-3,4-diol]",
8.32,7.29,"C[C@@]1(O)[C@@H]([C@H](O)c2ccc(Cl)cc2)O[C@@H](n2ccc3c(N)ncnc32)[C@@H]1O [Example 26, (2R,3S,4R,5R)-5-(4-amino-7H-pyrrolo[2,3-d]pyrimidin-7-yl)-2-((R)-(4-chlorophenyl)(hydroxy)methyl)-3-methyltetrahydrofuran-3,4-diol]",6.18
